According to US12552748B2, “Pyridine (thio)amides as fungicidal compounds” (Bayer Aktiengesellschaft, priority 2020, dated 2026):
Marks after values point to notes of the source that are not given here.

Test: physchem
Format: physicochemical
Method in brief: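 Reversed-phase HPLC per EEC directive 79/831 Annex V.A8, calibrated with straight-chain alkan-2-ones (C3–C16) of known Log P via linear interpolation of retention times. Lambda-max from UV spectra 200–400 nm at chromatographic peaks.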

Compound	LogP
Cc1ccc(CCNC(=O)c2cc(Cl)ncc2Oc2cccc(N(C)C)c2)c(C)c1 [Compound I-170]	4.83^[a]
COc1ccc(CCN(C(C)=O)C(=O)c2cc(Cl)ncc2Oc2cccc(C(F)(F)F)c2)cc1 [Compound I-171]	4.55^[a]
O=C(NCC(F)(F)c1ccc(-c2ccncc2Cl)cc1Cl)c1cc(-c2ccncc2Cl)ncc1Oc1cccc(C(F)(F)F)c1 [Compound I-172]	4.33^[a]
C=Cc1cc(C(=O)NCC(F)(F)c2ccc(C)cc2C)c(Oc2cccc(C3CC3)c2F)cn1 [Compound I-173]	5.04^[a]
CSc1c(Cl)ncc(Oc2cccc(C(F)(F)F)c2)c1C(=O)NCC(F)(F)c1ccc(C)cc1C [Compound I-174]	4.85^[a]
Cc1ccc(C(F)(F)CNC(=O)c2c(Oc3cccc(Cl)c3)cnc(Cl)c2Cl)c(C)c1 [Compound I-175]	4.85^[a]
CON(CCc1ccc(Cl)cc1Cl)C(=O)c1cc(Cl)ncc1Oc1cccc(C(F)(F)F)c1 [Compound I-177]	5.24^[a]
Cc1ccc(C(F)(F)CNC(=O)c2c(Br)cnc(Cl)c2Oc2cccc(Cl)c2)c(C)c1 [Compound I-178]	5.04^[a]
C#Cc1c(Cl)ncc(Oc2cccc(C(F)(F)F)c2)c1C(=O)NCC(F)(F)c1ccc(C)cc1C [Compound I-179]	5.74^[a]
COc1cccc(Oc2cnc(C)cc2C(=O)NCCc2ccc(C)cc2C)c1 [Compound I-180]	3.50^[a]
Cc1ccc(C(F)(F)CNC(=O)c2c(Oc3cccc(C(F)(F)F)c3)cnc(Cl)c2F)c(C)c1 [Compound I-181]	4.85^[a]
COc1cccc(Oc2cnc(C)cc2C(=O)NCC(F)(F)c2ccc(C)cc2C)c1 [Compound I-182]	3.71^[a]
Cc1ccc(CCNC(=O)c2cc(C)ncc2Oc2cccc(C(F)F)c2)c(C)c1 [Compound I-183]	3.56^[a]
Cc1ccc(CCNC(=O)c2ccncc2Oc2cccc(C(F)(F)F)c2)c(C)c1 [Compound I-184]	3.11^[a]
CCc1ccc(C(F)(F)CNC(=O)c2cc(Cl)ncc2Oc2cccc(C3CC3)c2)c(Cl)c1 [Compound I-185]	5.49^[a]
Cc1ccc(CCNC(=O)c2cc(C3CC3)ncc2Oc2cccc(C3CC3)c2)c(C)c1 [Compound I-186]	5.22^[a]
CCc1ccc(C(F)(F)CNC(=O)c2cc(CC)ncc2Oc2cccc(C3CC3)c2F)c(Cl)c1 [Compound I-187]	5.45^[a]
Cc1ccc(C(F)(F)CNC(=O)c2c(Oc3cccc(C(F)(F)F)c3)cnc(Cl)c2-c2ccccc2)c(C)c1 [Compound I-188]	5.12^[a]
C#Cc1cc(C(=O)NCCc2ccc(C)cc2C)c(Oc2cccc(C(F)(F)F)c2)cn1 [Compound I-191]	4.34^[a]
O=C(NCCc1ccc(C(F)(F)F)cc1Cl)c1cc(Cl)ncc1Oc1cccc(C(F)(F)F)c1 [Compound I-192]	4.95^[a]
O=C(NCC(F)(F)c1ccc(C2CC2)cc1Cl)c1cc(Cl)ncc1Oc1cccc(C2CC2)c1 [Compound I-193]	5.45^[a]
Cc1ccc(CCNC(=O)c2cc(C3CC3)ncc2Oc2cccc(C(F)(F)F)c2)c(C)c1 [Compound I-194]	4.97^[a]
COC(=O)Cc1cccc(Oc2cnc(Cl)cc2C(=O)NCCc2ccc(C)cc2C)c1 [Compound I-196]	4.17^[a]
O=C(NCCc1ccc2[nH]cnc2c1)c1cc(Cl)ncc1Oc1cccc(C(F)(F)F)c1 [Compound I-197]	1.82^[a]

Compound	LogP
C[Si](C)(C)C#Cc1ccc(C(F)(F)CNC(=O)c2cc(Cl)ncc2Oc2cccc(C(F)F)c2)c(Cl)c1 [Compound I-198]	5.97^[a]
COc1c(Cl)ncc(Oc2cccc(C(F)(F)F)c2)c1C(=O)NCC(F)(F)c1ccc(C)cc1C [Compound I-199]	4.74^[a]
COc1c(Cl)ncc(Oc2cccc(Cl)c2)c1C(=O)NCC(F)(F)c1ccc(C)cc1C [Compound I-200]	4.62^[a]
Cc1ccc(C(F)(F)CNC(=O)c2cc(Cl)ncc2Oc2cccc(C(F)(F)F)c2)c(Cl)c1 [Compound I-201]	4.66^[a]
Cc1cc(C(=O)NCC(F)c2ccc(Cl)cc2Cl)c(Oc2cccc(C(F)(F)F)c2)cn1 (stereo not drawn) [Compound I-202]	4.18^[a]
COCCc1ccc(C(F)(F)CNC(=O)c2cc(Cl)ncc2Oc2cccc(C(F)F)c2)c(Cl)c1 [Compound I-203]	4.14^[a]
Cc1ccc(CCNC(=O)c2cc(-c3ccncc3Cl)ncc2Oc2cccc(C(F)(F)F)c2)c(C)c1 [Compound I-204]	4.61^[a]
Cc1cc(C(=O)NCC(F)c2ccc(Cl)cc2C)c(Oc2cccc(C3CC3)c2F)cn1 (stereo not drawn) [Compound I-205]	4.37^[a]
Cc1ccc(CCNC(=O)c2cc(-c3cn[nH]c3)ncc2Oc2cccc(C(F)(F)F)c2)c(C)c1 [Compound I-206]	3.63^[a]
N#CN(CCc1ccc(Cl)cc1)C(=O)c1cc(Cl)ncc1Oc1cccc(C(F)(F)F)c1 [Compound I-207]	4.89^[a]
Cc1ccc(CCNC(=O)c2cc(C(F)(F)F)ncc2Oc2cccc(C(F)(F)F)c2)c(C)c1 [Compound I-208]	5.04^[a]
COc1cccc(Oc2cnc(C)cc2C(=O)NCC(F)c2ccc(C)cc2Cl)c1 (stereo not drawn) [Compound I-209]	3.62^[a]
O=C(NCC(F)(F)c1ccc(Br)cc1Cl)c1cc(Cl)ncc1Oc1cccc(C2CC2)c1F [Compound I-210]	5.31^[a]
O=C(NCC(F)(F)c1cc(Cl)sc1Cl)c1cc(Cl)ncc1Oc1cccc(C(F)(F)F)c1 [Compound I-211]	5.04^[a]
CCc1cc(C(=O)NCC(F)(F)c2ccc(C)cc2C)c(Oc2cccc(C3CC3)c2)cn1 [Compound I-212]	4.90^[a]
O=C(NCCc1csc2ccc(Cl)cc12)c1cc(Cl)ncc1Oc1cccc(C(F)(F)F)c1 [Compound I-213]	5.00^[a]
Cc1ccc(CCNC(=O)c2cc(Cl)ncc2Oc2cccc(C3CC3)c2)c(C)c1 [Compound I-214]	5.14^[a]
N#Cc1nc(Cl)cc(C(=O)NCC(F)(F)c2ccc(Br)cc2Cl)c1Oc1cccc(C(F)(F)F)c1 [Compound I-215]	4.81^[a]
O=C(NCC(F)(F)c1ccc(C2CC2)cc1Cl)c1cc(C2CC2)ncc1Oc1cccc(C2CC2)c1F [Compound I-216]	5.54^[a]
CNc1c(Cl)ncc(Oc2cccc(C(F)(F)F)c2)c1C(=O)NCC(F)(F)c1ccc(C)cc1C [Compound I-217]	4.44^[a]
CNc1ncc(Oc2cccc(C(F)(F)F)c2)c(C(=O)NCC(F)(F)c2ccc(C)cc2C)c1I [Compound I-218]	4.55^[a]
COc1cccc(Oc2cnc(C)cc2C(=O)NCC(F)c2ccc(Cl)cc2Cl)c1 (stereo not drawn) [Compound I-219]	3.75^[a]
Cc1cc(C(=O)NCC(F)c2ccc(Cl)cc2Cl)c(Oc2cccc(C3CC3)c2)cn1 (stereo not drawn) [Compound I-220]	4.44^[a]
N#Cc1nc(Cl)cc(C(=O)NCC(F)(F)c2ccc(Cl)cc2)c1Oc1cccc(C(F)(F)F)c1 [Compound I-221]	4.39^[a]

Compound	LogP
Cc1ccc(C(F)(F)CNC(=O)c2cc(Cl)ncc2Oc2cccc(C(F)(F)F)c2I)c(C)c1 [Compound I-222]	5.08^[a]
Cc1ccc(CCNC(=O)c2cc(Cl)ncc2Oc2cnc3ccccc3c2)c(C)c1 [Compound I-223]	3.34^[a]
Cc1ccc(C(F)CNC(=O)c2cc(C)ncc2Oc2cccc(C(F)F)c2)c(Cl)c1 (stereo not drawn) [Compound I-224]	3.63^[a]
Cc1ccc(CCNC(=O)c2cc(Cl)nc(C#N)c2Oc2cccc(C(F)(F)F)c2)c(C)c1 [Compound I-225]	4.58^[a]
Cc1ccc(CCNC(=O)c2cc(Cl)ncc2Oc2cccc(F)c2F)c(C)c1 [Compound I-226]	4.38^[a]
Cc1ccc(CCNC(=O)c2cc(Cl)ncc2Oc2cnc3c(c2)CCC3)c(C)c1 [Compound I-227]	3.35^[a]
Cc1ccc(CCNC(=O)c2cc(Cl)ncc2Oc2cccc(C=O)c2)c(C)c1 [Compound I-228]	3.79^[a]
Cc1ccc(CCNC(=O)c2cc(Cl)ncc2Oc2cccc(OC(F)(F)F)c2F)c(C)c1 [Compound I-229]	4.95^[a]
Cc1ccc(C(F)(F)CNC(=O)c2c(Oc3cccc(C(F)(F)F)c3)cnc(Cl)c2N2CCCC2)c(C)c1 [Compound I-230]	5.49^[a]
Cc1ccc(C(F)(F)CNC(=O)c2c(Oc3cccc(C(F)(F)F)c3)cnc(N3CCCC3)c2I)c(C)c1 [Compound I-231]	5.57^[a]
Cc1ccc(CCNC(=O)c2cc(Cl)ncc2Oc2ccc3c(c2)CCC3)c(C)c1 [Compound I-232]	5.49^[a]
Cc1ccc(CCNC(=O)c2cc(Cl)ncc2Oc2cc(F)c(F)cc2F)c(C)c1 [Compound I-233]	4.42^[a]
Cc1ccc(CCNC(=O)c2cc(C)ncc2Oc2cccc(Cl)c2)c(C)c1 [Compound I-234]	3.96^[a]
COCCOc1cccc(Oc2cnc(Cl)cc2C(=O)NCCc2ccc(C)cc2C)c1 [Compound I-235]	4.27^[a]
Cc1cc(C(=O)NCC(F)(F)c2ccc(Br)cc2Cl)c(Oc2cccc(C(F)F)c2)cn1 [Compound I-236]	3.74^[a]
CSc1cccc(Oc2cnc(Cl)cc2C(=O)NCCc2ccc(C)cc2C)c1F [Compound I-237]	4.69^[a]
Cc1ccc(CCNC(=O)c2cc(Cl)ncc2Oc2cccc(Cl)c2)c(C)c1 [Compound I-238]	4.74^[a]
Cc1ccc(C(F)(F)CNC(=O)c2cc(C3CC3)ncc2Oc2cccc(C3CC3)c2)c(C)c1 [Compound I-239]	5.41^[a]
Cc1ccc(CCNC(=O)c2cc(Cl)ncc2Oc2ccc(C(F)(F)F)cc2)c(C)c1 [Compound I-240]	4.77^[a]
O=C(NCC(F)(F)c1ccc(Br)cc1Cl)c1cc(Cl)ncc1Oc1cccc(Cl)c1 [Compound I-241]	4.95^[a]
Cc1ccc(CCNC(=O)c2cc(C)ncc2Oc2cccc(C3CC3)c2)c(C)c1 [Compound I-242]	4.27^[a]
Cc1ccc(CCNC(=O)c2cc(C3CC3)ncc2Oc2cccc(C3CC3)c2F)c(C)c1 [Compound I-243]	5.32^[a]
Cc1ccc(CCNC(=O)c2cc(Cl)ncc2Oc2cc(F)cc(Cl)c2)c(C)c1 [Compound I-244]	4.82^[a]
Cc1ccc(CCNC(=O)c2cc(Cl)nc(Cl)c2Oc2cccc(C(F)(F)F)c2)c(Cl)c1 [Compound I-245]	5.17^[a]
